Activity calls are given as the source filed them. The calls are words filed in the database; no cut-off is given here.
Tests used:
[1] = Selectivity ratio of IC50 for ovine COX1 to IC50 for human recombinant COX2
[2] = target: T1, Prostaglandin G/H synthase 1 (Ovis aries) (UniProt P05979); assay: Inhibition of ovine COX1 at 100 uM by enzyme immunoassay
T1 sequence (whole entry): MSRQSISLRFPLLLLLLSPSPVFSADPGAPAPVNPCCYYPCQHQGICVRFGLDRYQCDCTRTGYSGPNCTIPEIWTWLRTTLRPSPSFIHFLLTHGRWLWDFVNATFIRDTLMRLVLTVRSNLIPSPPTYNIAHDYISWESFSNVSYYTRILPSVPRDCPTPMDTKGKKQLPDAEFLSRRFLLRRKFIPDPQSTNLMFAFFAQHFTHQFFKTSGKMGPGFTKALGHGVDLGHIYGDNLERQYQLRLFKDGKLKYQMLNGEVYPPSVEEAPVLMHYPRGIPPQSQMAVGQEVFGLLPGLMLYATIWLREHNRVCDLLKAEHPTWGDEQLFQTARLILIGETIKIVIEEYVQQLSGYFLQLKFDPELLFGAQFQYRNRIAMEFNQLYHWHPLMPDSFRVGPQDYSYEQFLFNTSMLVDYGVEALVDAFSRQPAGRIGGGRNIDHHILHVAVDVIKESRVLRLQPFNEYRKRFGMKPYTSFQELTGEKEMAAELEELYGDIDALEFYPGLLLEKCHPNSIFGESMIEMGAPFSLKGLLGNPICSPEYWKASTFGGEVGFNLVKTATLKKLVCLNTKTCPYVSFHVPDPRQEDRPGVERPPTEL

[3] = Induction of NO release in phosphate buffer at pH 7.4; assay type: physicochemical
[4] = target: T2, Prostaglandin G/H synthase 1 (Ovis aries, UniProt P05979)
T2 sequence (P05979 whole entry): T1 sequence (whole entry)
Description: Inhibition of ovine COX1 by enzyme immunoassay

[5] = system: Rattus norvegicus; assay: Antiinflammatory activity in po dosed rat assessed as inhibition of carrageenan-induced paw edema; assay type: functional
[6] = Induction of NO release in presence of 5 mM L-cysteine; assay type: physicochemical
[7] = species: Rattus norvegicus; assay: animal or person; conditions: po, read-out: INH
[8] = species: Rattus norvegicus; conditions: 100 mg/kg

SMILES | Ratio IC50 [1] | inhibition [2] | Activity [3] [%] | IC50 [4] [µM] | ED50 [5] [mg/kg] | Activity [6] [%] | inhibition in vivo at 100 mg/kg [7] [%] | inhibition [8]
CS(=O)(=O)c1ccc(-n2nc(C(F)(F)F)cc2C2CCN(CCCCO[N+](=O)[O-])CC2)cc1 | > 6 | inactive | 3.8 | > 100 | 132 | 8.4 |  | 
NS(=O)(=O)c1ccc(-n2nc(C(F)(F)F)cc2C2CCN(CCCCO[N+](=O)[O-])CC2)cc1 |  |  | 2.4 | 19.8 |  | 3.1 | 9 | 
CS(=O)(=O)c1ccc(-n2nc(C(F)(F)F)cc2C2=CCN(CCCCO[N+](=O)[O-])CC2)cc1 |  |  | 3.1 | 34.7 | 118 | 3.8 |  | 
O=[N+]([O-])OCC(CO[N+](=O)[O-])O[N+](=O)[O-] [NITROGLYCERIN] |  |  | 2.8 |  |  | 10.1 |  | 
CC(C)Cc1ccc(C(C)C(=O)O)cc1 (stereo unspecified) [IBUPROFEN] |  |  |  |  | 67.4 |  |  | 
NS(=O)(=O)c1ccc(-n2nc(C(F)(F)F)cc2C2=CCN(CCCCO[N+](=O)[O-])CC2)cc1 |  |  | 5.8 | 16.2 |  | 7.1 |  | inactive

Reference: ChEMBL document CHEMBL1156895 (Bioorg Med Chem Lett, 2010)
